How the values were obtained:
Type in all cases: in vivo
[1] = tested on: Solanum nigrum (SOLNI); assay: Pre-emergence herbicidal test; settings: 1000 g/ha, evaluated after 13 days
[2] = tested on: Setaria faberi (SETFA); assay: Pre-emergence herbicidal test; settings: 1000 g/ha, evaluated after 13 days
[3] = tested on: Echinochloa crus-galli (ECHCG); assay: Post-emergence herbicidal test; settings: 1000 g/ha unless otherwise stated, evaluated after 13 days
Outline: (§1)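 Pots sown in standard soil were kept in a glasshouse (24° C./16° C. day/night, 14 hours light, 65% humidity) and sprayed at 1000 g/ha unless otherwise stated in acetone/water (50:50) with 0.5% Tween 20. Percentage damage was scored after 13 days on a 0–5 scale.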

[4] = tested on: Amaranthus retoflexus (AMARE); assay: Post-emergence herbicidal test; settings: 1000 g/ha unless otherwise stated, evaluated after 13 days
Outline: as §1

[5] = tested on: Setaria faberi (SETFA); assay: Post-emergence herbicidal test; settings: 1000 g/ha unless otherwise stated, evaluated after 13 days
Outline: as §1

[6] = tested on: Ipomoea hederacea (IPOHE); assay: Post-emergence herbicidal test; settings: 1000 g/ha unless otherwise stated, evaluated after 13 days
Outline: as §1

[7] = tested on: Lolium perenne (LOLPE); assay: Post-emergence herbicidal test; settings: 1000 g/ha unless otherwise stated, evaluated after 13 days
Outline: as §1

[8] = tested on: Solanum nigrum (SOLNI); assay: Post-emergence herbicidal test; settings: 1000 g/ha unless otherwise stated, evaluated after 13 days
Outline: as §1

[9] = tested on: Amaranthus retoflexus (AMARE); assay: Pre-emergence herbicidal test; settings: 1000 g/ha, evaluated after 13 days
[10] = tested on: Ipomoea hederacea (IPOHE); assay: Pre-emergence herbicidal test; settings: 1000 g/ha, evaluated after 13 days
[11] = tested on: Echinochloa crus-galli (ECHCG); assay: Pre-emergence herbicidal test; settings: 1000 g/ha, evaluated after 13 days
[12] = tested on: Lolium perenne (LOLPE); assay: Pre-emergence herbicidal test; settings: 1000 g/ha, evaluated after 13 days
[13] = tested on: Zea mays (ZEAMX); assay: Pre-emergence herbicidal test; settings: 1000 g/ha, evaluated after 13 days
[14] = tested on: Abutilon theophrasti (ABUTH); assay: Post-emergence herbicidal test; settings: 1000 g/ha unless otherwise stated, evaluated after 13 days
Outline: as §1

[15] = tested on: Zea mays (ZEAMX); assay: Post-emergence herbicidal test; settings: 1000 g/ha unless otherwise stated, evaluated after 13 days
Outline: as §1

[16] = tested on: Abutilon theophrasti (ABUTH); assay: Pre-emergence herbicidal test; settings: 1000 g/ha, evaluated after 13 days

SMILES | percentage damage caused to the plant, five-point scale, SOLNI [1] | percentage damage caused to the plant, five-point scale, SETFA [2] | percentage damage caused to the plant, ECHCG (five-point scale) [3] | percentage damage caused to the plant, AMARE (five-point scale) [4] | percentage damage caused to the plant, SETFA (five-point scale) [5] | percentage damage caused to the plant, IPOHE (five-point scale) [6] | percentage damage caused to the plant, LOLPE (five-point scale) [7] | percentage damage caused to the plant, SOLNI (five-point scale) [8] | percentage damage caused to the plant, five-point scale, AMARE [9] | percentage damage caused to the plant, five-point scale, IPOHE [10] | percentage damage caused to the plant, five-point scale, ECHCG [11] | percentage damage caused to the plant, five-point scale, LOLPE [12] | percentage damage caused to the plant, five-point scale, ZEAMX [13] | percentage damage caused to the plant, ABUTH (five-point scale) [14] | percentage damage caused to the plant, ZEAMX (five-point scale) [15] | percentage damage caused to the plant, five-point scale, ABUTH [16]
CSc1cccc2c1c(=O)c(C(=O)O)nn2-c1ccc(OC(F)(F)F)cc1 [Compound P1, 5-methylsulfanyl-4-oxo-1-[4-(trifluoromethoxy)phenyl]cinnoline-3-carboxylic acid] | 0 (0=0%) | 0 (0=0%) | 0 (0=0%) | 0 (0=0%) | 0 (0=0%) | 0 (0=0%) | 0 (0=0%) | 0 (0=0%) | 0 (0=0%) | 0 (0=0%) | 0 (0=0%) | 0 (0=0%) | – | – | – | –
CS(=O)(=O)c1cccc2c1c(=O)c(C(=O)O)nn2-c1ccc(OC(F)(F)F)cc1 [Compound P2, 5-methylsulfonyl-4-oxo-1-[4-(trifluoromethoxy)phenyl]cinnoline-3-carboxylic acid] | 4 (4=61-80%) | 5 (5=81-100%) | 4 (4=61-80%) | 1 (1=10-20%) | 4 (4=61-80%) | 2 (2=21-40%) | 4 (4=61-80%) | 4 (4=61-80%) | 1 (1=10-20%) | 1 (1=10-20%) | 5 (5=81-100%) | 5 (5=81-100%) | – | – | – | –
COC(=O)c1nn(-c2ccc(OC(F)(F)F)cc2)c2cccc(S(C)(=O)=O)c2c1=O [Compound P3, methyl 5-methylsulfonyl-4-oxo-1-[4-(trifluoromethoxy)phenyl]cinnoline-3-carboxylate] | 1 (1=10-20%) | 4 (4=61-80%) | 4 (4=61-80%) | 1 (1=10-20%) | 4 (4=61-80%) | 1 (1=10-20%) | 4 (4=61-80%) | 1 (1=10-20%) | 1 (1=10-20%) | 1 (1=10-20%) | 4 (4=61-80%) | 4 (4=61-80%) | – | – | – | –
CS(=O)(=O)c1cccc2c1c(=O)c(C(=O)OCCC1CCCCC1)nn2-c1ccc(OC(F)(F)F)cc1 [Compound P87, 2-cyclohexylethyl 5-methylsulfonyl-4-oxo-1-[4-(trifluoromethoxy)phenyl]cinnoline-3-carboxylate] | – | 3 (3=41-60%) | 1 (1=10-20%) | 1 (1=10-20%) | 1 (1=10-20%) | 0 (0=0%) | – | – | 0 (0=0%) | 1 (1=10-20%) | 1 (1=10-20%) | – | 1 (1=10-20%) | 1 (1=10-20%) | 0 (0=0%) | 1 (1=10-20%)
CC(C)CCOC(=O)c1nn(-c2ccc(OC(F)(F)F)cc2)c2cccc(S(C)(=O)=O)c2c1=O [Compound P88, isopentyl 5-methylsulfonyl-4-oxo-1-[4-(trifluoromethoxy)phenyl]cinnoline-3-carboxylate] | – | 5 (5=81-100%) | 3 (3=41-60%) | 0 (0=0%) | 4 (4=61-80%) | 0 (0=0%) | – | – | 0 (0=0%) | 0 (0=0%) | 4 (4=61-80%) | – | 0 (0=0%) | 1 (1=10-20%) | 0 (0=0%) | 0 (0=0%)
CS(=O)(=O)c1cccc2c1c(=O)c(C(=O)OCCCCOCc1ccccc1)nn2-c1ccc(OC(F)(F)F)cc1 [Compound P89, 4-benzyloxybutyl 5-methylsulfonyl-4-oxo-1-[4-(trifluoromethoxy)phenyl]cinnoline-3-carboxylate] | – | 4 (4=61-80%) | 3 (3=41-60%) | 0 (0=0%) | 4 (4=61-80%) | 0 (0=0%) | – | – | 0 (0=0%) | 0 (0=0%) | 4 (4=61-80%) | – | 0 (0=0%) | 0 (0=0%) | 0 (0=0%) | 0 (0=0%)
CCCCCCCCSC(=O)c1nn(-c2ccc(OC(F)(F)F)cc2)c2cccc(S(C)(=O)=O)c2c1=O [Compound P90, S-octyl 5-methylsulfonyl-4-oxo-1-[4-(trifluoromethoxy)phenyl]cinnoline-3-carbothioate] | – | 4 (4=61-80%) | 3 (3=41-60%) | 0 (0=0%) | 4 (4=61-80%) | 1 (1=10-20%) | – | – | 0 (0=0%) | 0 (0=0%) | 3 (3=41-60%) | – | 0 (0=0%) | 0 (0=0%) | 1 (1=10-20%) | 0 (0=0%)
CC(C)CCSC(=O)c1nn(-c2ccc(OC(F)(F)F)cc2)c2cccc(S(C)(=O)=O)c2c1=O [Compound P91, S-isopentyl 5-methylsulfonyl-4-oxo-1-[4-(trifluoromethoxy)phenyl]cinnoline-3-carbothioate] | – | 4 (4=61-80%) | 3 (3=41-60%) | 0 (0=0%) | 4 (4=61-80%) | 1 (1=10-20%) | – | – | 0 (0=0%) | 0 (0=0%) | 3 (3=41-60%) | – | 0 (0=0%) | 1 (1=10-20%) | 1 (1=10-20%) | 0 (0=0%)
CS(=O)(=O)c1cccc2c1c(=O)c(C(=O)SCCCc1ccccc1)nn2-c1ccc(OC(F)(F)F)cc1 [Compound P92, S-(3-phenylpropyl) 5-methyslulfonyl-4-oxo-1-[4-(trifluoromethoxy)phenyl]cinnoline-3-carbothioate] | – | 3 (3=41-60%) | 3 (3=41-60%) | 1 (1=10-20%) | 3 (3=41-60%) | 2 (2=21-40%) | – | – | 1 (1=10-20%) | 0 (0=0%) | 1 (1=10-20%) | – | 0 (0=0%) | 2 (2=21-40%) | 1 (1=10-20%) | 1 (1=10-20%)
